Drawing on ChEMBL document CHEMBL4354827, “Discovery of Novel, Potent, Brain-Permeable, and Orally Efficacious Positive Allosteric Modulator of α7 Nicotinic Acetylcholine Receptor [4-(5-(4-Chlorophenyl)-4-methyl-2-propionylthiophen-3-yl)benzenesulfonamide]: Structure-Activity Relationship and Preclinical Characterization” (J Med Chem, 2020), this text covers concentration and Kp for one compound.

Format in all cases: ADME, organism-based
Data set [1] can be described thus: Drug concentration in Sprague-Dawley rat brain at 3 mg/kg, po after 1 hr. To be noted: read-out: Drug uptake.
A short description of data set [2]: Ratio of drug level in Sprague-Dawley rat brain to plasma at 3 mg/kg, po after 1 hr. To be noted: brain and plasma, read-out: BPR.
Data set [3] in a line: Drug concentration in Sprague-Dawley rat plasma at 3 mg/kg, po after 1 hr.

Structures are written as SMILES.

`COc1cc(OC)c(NC(=O)Nc2cc(C)on2)cc1Cl`: the figures for the concentration at 1 h in data set [1] and in data set [3] were 50.8 ng/g and 43.1 ng/mL, respectively. The Kp at 1 h in data set [2] turned out to be 1.18.
